Test results reported in patent US8436154B2, “Crystallizing method of erythromycin” (Sunshine Lake Pharma Co., Ltd., priority 2008, dated 2013).

Assay: microbiological titre of erythromycin crystals
Format: cell-based
Details: dried erythromycin crystals recrystallized from dichloromethane-containing solvent

Row | Substance | microbiological titre
1 | erythromycin [Example 1] | 948 μ/mg
2 | erythromycin [Example 2] | 955 μ/mg
3 | erythromycin [Example 3] | 941 μ/mg
4 | erythromycin [Example 4] | 946 μ/mg
5 | erythromycin [Example 5] | 943 μ/mg

Assay: not given
Details: erythromycin crystals of CN1513864A, recrystallized from acetone and water; cited from earlier work

Row | Substance | microbiological titre
6 | erythromycin [erythromycin crystals] | less than 930 μ/mg
